The source of these data is US9422241B2, “Demethylpenclomedine analogs and their use as anti-cancer agents” (priority 2005, dated 2016).

Where “and” joins values, the source holds several entries; their conditions need not be identical. Identical values can stand only once. Entries after “also recorded” stand apart in the source; their conditions may differ. Like-named read-outs stand apart in the source and are kept apart here.

The test system of series [1] is KG breast CA. The series can be described thus: in vitro cytotoxic activity against KG breast cancer explants. Format: cell-based, human. An excerpt:
(§1) In one embodiment, preferred therapeutic agents are identified herein by assessing their in vitro cytotoxic activity against cultured model cancer cell lines. […] Suitable cell lines against which the disclosed compounds may be assessed are well known to those of skill in the art and include, by way of example, KG breast CA, LM breast CA and 9L rat glioma. […] The KG breast cancer explants were obtained from surgical biopsies of chest wall metastases from breast cancer. The patient had failed on extensive standard and experimental chemo/hormone and radiation therapy protocols. Minced biopsy specimens were grown in RPMI plus 10% FBS with antibiotics at 37° C. and 5% CO2 atmosphere. DM-CHOC-PEN was tested at 0.5-5 μg/mL concentrations in medium and incubated for 24 hrs.

Series [2] concerns mice. The series can be described thus: sub-acute oral mouse toxicity study. To be noted: daily for five days, 800-2000 mg/kg.
Experimental: Sub-acute oral mouse toxicity study was conducted at MPI Research, Mattawan, Mich., under GLP conditions in male/female mice.
The subject of series [3] is 9L rat glioma. Description: in vitro cytotoxic activity against 9L rat glioma. Format: cell-based.
Text: as §1

Series [4] relates to D54 Glioblastoma. The series can be described thus: antitumor evaluation vs. intracerebrally implanted D54 glioblastoma xenograft. Type of series: in vivo, mice. To be noted: D54 IC, 200 mg/kg IP q1d x 5d. Here is the method: (§2) U251 and D54 tumors, 10^6 cultured cells in 0.03 ml volume were injected via a 25-gauge stainless steel 0.25 inch needle into the right cerebrum with angling toward the center of the brain. […] Doses varied to include an ca LD10 as described above for the MX-1 tumor. BCNU was used clinically to treated advanced gliomas and will be used as a positive control at optimal doses of 17, 10 and 6 mg/kg on a qd 1-5 schedule, since it is also the clinical standard for brain tumors and is very active against this tumor model. DM-PEN at 60, 90 and 135 mg/kg on the same schedule was included as a comparative control. Antitumor activity was assessed on the basis of survival, with the medial day of death of the controls (10 mice) typically being ca. 30-35 days. The in vivo tumor inhibition results are recorded in Table 3.

The test system of series [5] is mice. The series can be described thus: acute IV toxicity in the mouse (single dose). Type of series: in vivo. Particulars: Mouse CD2F1, 12 F, 21 days.
Series [6] deals with Beagle dogs. The series can be described thus: acute IV toxicity in the dog. To be noted: for Observations (mortality): 2 M 2 F. Type of series: in vivo. Here is the method:
This example describes the acute toxicity of DM-CHOC-PEN in dogs. An acute study was performed in adult Beagle dogs, which consisted of: DM-CHOC-PEN administered once IV. Sixteen (16) adult beagle dogs (8 male and 8 female) divided into three groups received a single intravenous injection of DM-CHOC-PEN. The DM-CHOC-PEN was administered in 0.3% Klucel+1.92% Tween® 80, The results are recorded in Table 6.

Series [7] in a line: therapeutic studies (not specified further). Format: in vivo.
Series [8] relates to LM breast CA. The series can be described thus: in vitro cytotoxic activity against LM breast CA. Format: cell-based.
Text: as §1

The subject of series [9] is U251 GBM. Type of series: in vivo. Particulars: for ILS (percentage increased length of survival in days vs. control): U251 GBM in cerebrum, IP qd 1-5, dose not given; for LTC (long-term cure, >30-35 days): U251 GBM, cured/animals. How it is done:
as §2

Series [10] deals with mice. Description: acute IV toxicity in the mouse (single dose). Type of series: in vivo. To be noted: for Observations (mortality): 5 M 5 F. How it is done: This example describes the toxicity of DM-CHOC-PEN to mice as administered via intravenous injections and oral gavage. For the intravenous study, the dose range-finding phase consisted of five treatment groups (one male mouse/group) that received the test article as a single dose at respective dose levels of 50 (dose volume of 5 mL/kg), 100 (dose volume of 10 mL/kg), 150 (dose volume of 15 mL/kg), 250 (dose volume of 25 mL/kg), and 500 mg/kg (intended total dose volume of 50 mL/kg). The 500 mg/kg dose was intended to be a split dose that was to be administered in equal fractions (25 mL/kg/dose) approximately four hours apart (mortality precluded administration of the second portion of the dose). An additional group (one male mouse) served as the control and received the vehicle, soybean oil, at a dose volume of 25 mL/kg using the same route of administration as the treated groups. On Day 4, following the three-day observation period, all surviving dose range-finding animals were euthanized and discarded.
The main study phase consisted of five treatment groups (five mice/sex/group) that received a single dose of the test article at respective dose levels of 50, 100, 200, 400, and 600 mg/kg. An additional group (five mice/sex) served as the control and received the vehicle, 0.3% Klucel+1.92% Tween® 80, using the same dosing regimen as the treated groups. All doses were at a constant volume of 25 mL/kg.
Observations for mortality, morbidity, and the availability of food and water were conducted twice daily for all animals. Observations for clinical signs were conducted daily during the study (approximately one and four hours post-dose on Day 1 and then once daily). Body weights were measured on all animals after receipt, prior to randomization and on Day 1. In addition, body weights were measured for all surviving main study phase animals on Days 7 and 14. Macroscopic evaluations were performed on each main study phase animal at necropsy (Day 15).

Series [11] relates to MX-1 Breast Cancer. Description: antitumor evaluation vs. MX-1 breast cancer xenograft.
For series [12], the system named is patients with advanced solid tumors. Particulars: one hour infusion for 5 consecutive days; dysmetria, ataxia, vertigo; cited from earlier work.

For the molecule “4-Demethyl cholesteryloxycarbonylpenclomedine [DM-CHOC-PEN]”, the “in vitro IC50” value is listed as 0.7±0.4 micrograms/mL in [1] (KG breast CA), 1.1±0.4 micrograms/mL in series [3] and 1.0±0.5 micrograms/mL in series [8]. In series [1] (KG breast cancer explants, 0.5-5 μg/mL in medium, incubated 24 hrs), this molecule yielded an IC50 of 1.1 ± 0.5 µg/mL. Moreover, the mortality result in series [2] is on record as “Only one death occurred at 800 mg/kg”. Also, in [2], the seizures result was “No seizures noted”. For the same molecule, in series [2] (similar in controls), the clinical observations result was “some degree of lethargy and unkept appearance”. Besides, the “% Increase in Life Span (% ILS)” value in series [4] was “+3%”; in series [9] (U251 IC, 135 mg/kg IP q1d x 5d), “+29%”; in [11] (MX-1 IC, 25 mg/kg IP q1d x 5d), “+6%”; in series [11] (MX-1 IC, 50 mg/kg IP q1d x 5d), “+20%”. In addition, the “% Long Term Survivors (% LTS)” value in series [4] was 20 (1/5 CR) %; in series [9] (U251 IC, 135 mg/kg IP q1d x 5d, LTS >90 days, 135 mg/kg), 20% and 20 (1/5 CR) %; in series [11] (MX-1 IC, printed on the 25 mg/kg line (25 and 50 mg/kg tested), IP q1d x 5d), 17% and 17 (1/6 CR) %. In addition, the median lethal dose (LD50) in series [5] is 390 mg/kg; in series [6] (Dog, Beagle, IV single dose, 10 days), greater than 30 mg/kg; in series [10] (Mouse, IV single dose) it was 390 mg/kg. Moreover, in [6] (Dog), the “Acute IV (LD10)” value is on record as greater than 30 mg/kg. The “Observations (mortality)” value in series [6] (IV once 10 mg/kg) was “No deaths”; in [6] (IV once 20 mg/kg) it was “No deaths”; in series [6] (IV once 30 mg/kg), “No deaths”; in series [10] (single IV dose 50 mg/kg, 50 mg/kg), 1 of 10 and 0 M and 1 F died; in [10] (single IV dose 100 mg/kg, 100 mg/kg) it was “No animals died; also recorded: No deaths”; in series [10] (single IV dose 200 mg/kg, 200 mg/kg) it was 1 of 10 and 0 M and 1 F died. The “Observations (mortality)” value in [10] (single IV dose 400 mg/kg, 400 mg/kg) was 7 of 10 and 4 M and 3 F died; in [10] (single IV dose 600 mg/kg, 600 mg/kg), 8 of 10 and 5 M and 3 F died. Also, the entries for the “Comparable Human IV Dosage” value in series [6] (estimated from dog LD10) and in series [10] (estimated from mouse LD10) were greater than 600 mg/m^2 and 39 mg/m^2, respectively. Besides, the “effects directly related to the test article” value in series [6] (single IV injection 10, 20 and 30 mg/kg) is given as “no effects that were directly related to the test article”. The “dosing range in which responses were seen” value in series [7] fell in the range of 150 to 225 mg/kg. Moreover, the neurotoxicity entry in series [9] (DM-CHOC-PEN treatment regimen in the animal studies) is “did not demonstrate neurotoxicity”. Besides, the long-term survivors in [9] (Table 3, U251) was 20%. For the same molecule, the “ILS (percentage increased length of survival in days vs. control)” value in series [9] (Table 3) is listed as 29%. The “LTC (long-term cure, >30-35 days)” value in series [9] (Table 3) is on record as “⅕”. Besides, in series [9] (U251, IP daily x 5 days), the “increase in survival compared to DM-PEN” value is given as “two-fold”. Moreover, in [9] (U251, IP daily x 5 days), the tumor burden reduction result is given as “log107”. Besides, the weight loss entry is recorded as “no weight loss” in [9] (U251 xenograft mice, IP daily x 5) and “no weight loss” in series [11] (MX-1 tumor mice, daily dosing for 5 days). Also, the “macroscopic findings at necropsy” value in series [10] (Day 15) is “No macroscopic findings”. Also, the “time until the last death” value in [10] (Mouse, IV, 14-day study) was 2 to 14 days. For the same molecule, the body weight effects result in series [10] (mice surviving the 14-day observation period vs controls) is on record as “No definitively clear treatment-related body effects”. In addition, in [10] (mice, combined sexes, single dose), the “intravenous LD10” value is recorded as 136 mg/kg. In series [10] (mice, combined sexes, 95% confidence limits 298 to 502 mg/kg), the “intravenous LD50” value was 385 mg/kg. Also, in [10] (single IV dose 50-600 mg/kg, both sexes, generally dose-dependent), the clinical signs entry was “decreased activity, rapid/difficult/slow/shallow breathing, limbs splayed, tremors and skin cold to touch”. The “deaths in dose range-finding phase” value in [10] (single IV dose in soybean oil, at 0, 100, 250 and 500 mg/kg, one male mouse/group) is listed as “immediate deaths”.

With `O=NN(CCCl)C(=O)NCCCl` [BCNU, reference compound], the “% ILS” value in series [9] (U251, BCNU positive control) was “+92%”.

For the molecule `COc1[nH]c(C(Cl)(Cl)Cl)c(Cl)c(=O)c1Cl` [DM-PEN, 4-demethylpenclomedine, reference compound], in [1] (requires prior activation per the liver), the activity in vitro result was “not active in vitro”. In series [9] (Table 3), the “ILS (percentage increased length of survival in days vs. control)” value amounted to 13% and the “LTC (long-term cure, >30-35 days)” value stood at 0. In addition, in series [9] (Table 4 tumors, daily dosing for 5 days), the complete responders result is recorded as “did not produce any complete responders”. For the same molecule, in series [9] (U251 IC, 90 mg/kg IP q1d x 5d), the “% ILS” value worked out at 17% and the “% LTS (given as survivors/animals)” value is 0/5. Besides, in [11] (MX-1 IC, 60 mg/kg IP q1d x 5d), the “% ILS” value is given as 12% and the “% LTS (given as survivors/animals)” value is listed as 0/5.

Turning to `COc1nc(C(Cl)(Cl)Cl)c(Cl)c(OC)c1Cl` [PEN, 3,5-dichloro-4,6-dimethoxy-2-(trichloromethyl)-pyridine], in series [12], the “neurotoxicity in clinical trials” value is given as “dose-limiting neurotoxicity was observed”.

As usually defined, the IC50 is the midpoint of a concentration-inhibition curve. For orientation: LD50 means the dose at which mortality reaches 50%. Read a low LD50 as greater toxicity.
